# Test results: patent US5843889A, “Glycopeptide antibiotic derivatives” (Eli Lilly and Company, priority 1997, dated 1998)
# Tests used:
# Experiment in all cases: MIC, standard broth micro-dilution assay
# Format in all cases: cell-based
# [1] = test system: Entercoccus faecalis 2041
# Experimental: (§1) The formula I compounds have in vitro and in vivo activity against Gram-positive pathogenic bacteria. The MIC's were determined using a standard broth micro-dilution assay.
# [2] = test system: Entercoccus faecalis 276
# Experimental: as §1
# [3] = test system: Entercoccus gallinarum 245
# Experimental: as §1
SMILES,MIC [1] [µg/mL],MIC [2] [µg/mL],MIC [3] [µg/mL]
"CCCOC(c1ccccc1)c1ccc(CNC2(C)CC(OC3C(Oc4c5cc6cc4Oc4ccc(cc4Cl)C(OC4CC(C)(N)C(O)C(C)O4)C4NC(=O)C(NC(=O)C6NC(=O)C(CC(N)=O)NC(=O)C(NC(=O)C(CC(C)C)NC)C(O)c6ccc(c(Cl)c6)O5)c5ccc(O)c(c5)-c5c(O)cc(O)cc5C(C(=O)O)NC4=O)OC(CO)C(O)C3O)OC(C)C2O)cc1 (stereo not drawn) [Compound 128, 4-[alpha-propoxybenzyl]benzyl]",0.5,1,2
"CNC(CC(C)C)C(=O)NC1C(=O)NC(CC(N)=O)C(=O)NC2C(=O)NC3C(=O)NC(C(=O)NC(C(=O)O)c4cc(O)cc(O)c4-c4cc3ccc4O)C(OC3CC(C)(N)C(O)C(C)O3)c3ccc(c(Cl)c3)Oc3cc2cc(c3OC2OC(CO)C(O)C(O)C2OC2CC(C)(NCc3cc4ccccc4s3)C(O)C(C)O2)Oc2ccc(cc2Cl)C1O (stereo not drawn) [Compound 19, 2-benzthienylmethyl]",≤ 0.06,≤ 0.06,≤ 0.06
"CNC(CC(C)C)C(=O)NC1C(=O)NC(CC(N)=O)C(=O)NC2C(=O)NC3C(=O)NC(C(=O)NC(C(=O)O)c4cc(O)cc(O)c4-c4cc3ccc4O)C(OC3CC(C)(N)C(O)C(C)O3)c3ccc(c(Cl)c3)Oc3cc2cc(c3OC2OC(CO)C(O)C(O)C2OC2CC(C)(NCc3ccc(-c4ccc(C#N)cc4)cc3)C(O)C(C)O2)Oc2ccc(cc2Cl)C1O (stereo not drawn) [Compound 231, 4-[4-cyanophenyl]benzyl]",≤ 0.06,≤ 0.06,0.5
"CN[C@H](CC(C)C)C(=O)N[C@H]1C(=O)N[C@@H](CC(N)=O)C(=O)N[C@H]2C(=O)N[C@H]3C(=O)N[C@H](C(=O)N[C@H](C(=O)O)c4cc(O)cc(O)c4-c4cc3ccc4O)[C@H](O[C@H]3C[C@](C)(N)[C@@H](O)[C@H](C)O3)c3ccc(c(Cl)c3)Oc3cc2cc(c3O[C@@H]2O[C@H](CO)[C@@H](O)[C@H](O)[C@H]2O[C@H]2C[C@](C)(NCc3ccc(Oc4ccc(C(C)(C)C)cc4)cc3)[C@@H](O)[C@H](C)O2)Oc2ccc(cc2Cl)[C@H]1O [Compound 96, 4-[4-t-butylphenoxy]benzyl]",1,0.5,2
"CCCc1ccc(-c2ccc(CNC3(C)CC(OC4C(Oc5c6cc7cc5Oc5ccc(cc5Cl)C(OC5CC(C)(N)C(O)C(C)O5)C5NC(=O)C(NC(=O)C7NC(=O)C(CC(N)=O)NC(=O)C(NC(=O)C(CC(C)C)NC)C(O)c7ccc(c(Cl)c7)O6)c6ccc(O)c(c6)-c6c(O)cc(O)cc6C(C(=O)O)NC5=O)OC(CO)C(O)C4O)OC(C)C3O)cc2)cc1 (stereo not drawn) [Compound 107, 4-[4-propylphenyl]benzyl]",0.5,1,2
"CNC(CC(C)C)C(=O)NC1C(=O)NC(CC(N)=O)C(=O)NC2C(=O)NC3C(=O)NC(C(=O)NC(C(=O)O)c4cc(O)cc(O)c4-c4cc3ccc4O)C(OC3CC(C)(N)C(O)C(C)O3)c3ccc(c(Cl)c3)Oc3cc2cc(c3OC2OC(CO)C(O)C(O)C2OC2CC(C)(NCc3ccc(-c4ccccn4)cc3)C(O)C(C)O2)Oc2ccc(cc2Cl)C1O (stereo not drawn) [Compound 137, 4-[2-pyridyl]benzyl]",≤ 0.06,≤ 0.06,8
"CNC(CC(C)C)C(=O)NC1C(=O)NC(CC(N)=O)C(=O)NC2C(=O)NC3C(=O)NC(C(=O)NC(C(=O)O)c4cc(O)cc(O)c4-c4cc3ccc4O)C(OC3CC(C)(N)C(O)C(C)O3)c3ccc(c(Cl)c3)Oc3cc2cc(c3OC2OC(CO)C(O)C(O)C2OC2CC(C)(NCc3sccc3-c3cccs3)C(O)C(C)O2)Oc2ccc(cc2Cl)C1O (stereo not drawn) [Compound 238, 3-[2-thienyl]-2-thienylmethyl]",≤ 0.06,≤ 0.06,≤ 0.06
"CNC(CC(C)C)C(=O)NC1C(=O)NC(CC(N)=O)C(=O)NC2C(=O)NC3C(=O)NC(C(=O)NC(C(=O)O)c4cc(O)cc(O)c4-c4cc3ccc4O)C(OC3CC(C)(N)C(O)C(C)O3)c3ccc(c(Cl)c3)Oc3cc2cc(c3OC2OC(CO)C(O)C(O)C2OC2CC(C)(NCc3ccc(Oc4ccc(Cl)c(Cl)c4)cc3)C(O)C(C)O2)Oc2ccc(cc2Cl)C1O (stereo not drawn) [Compound 81, 4-[3,4-dichlorophenoxy]benzyl]",≤ 0.06,≤ 0.06,0.25
"CNC(CC(C)C)C(=O)NC1C(=O)NC(CC(N)=O)C(=O)NC2C(=O)NC3C(=O)NC(C(=O)NC(C(=O)O)c4cc(O)cc(O)c4-c4cc3ccc4O)C(OC3CC(C)(N)C(O)C(C)O3)c3ccc(c(Cl)c3)Oc3cc2cc(c3OC2OC(CO)C(O)C(O)C2OC2CC(C)(NCc3ccc(N4CCN(C)CC4)cc3)C(O)C(C)O2)Oc2ccc(cc2Cl)C1O (stereo not drawn) [Compound 146, 4-[4-methylpiperazino]benzyl]",0.5,1,0.5
"CNC(CC(C)C)C(=O)NC1C(=O)NC(CC(N)=O)C(=O)NC2C(=O)NC3C(=O)NC(C(=O)NC(C(=O)O)c4cc(O)cc(O)c4-c4cc3ccc4O)C(OC3CC(C)(N)C(O)C(C)O3)c3ccc(c(Cl)c3)Oc3cc2cc(c3OC2OC(CO)C(O)C(O)C2OC2CC(C)(NCc3ccc(OS(C)(=O)=O)cc3)C(O)C(C)O2)Oc2ccc(cc2Cl)C1O (stereo not drawn) [Compound 149, 4-methylsulfonyloxybenzyl]",≤ 0.06,≤ 0.06,16
"CNC(CC(C)C)C(=O)NC1C(=O)NC(CC(N)=O)C(=O)NC2C(=O)NC3C(=O)NC(C(=O)NC(C(=O)O)c4cc(O)cc(O)c4-c4cc3ccc4O)C(OC3CC(C)(N)C(O)C(C)O3)c3ccc(c(Cl)c3)Oc3cc2cc(c3OC2OC(CO)C(O)C(O)C2OC2CC(C)(NCc3ccc(O)cc3)C(O)C(C)O2)Oc2ccc(cc2Cl)C1O (stereo not drawn) [Compound 136, 4-hydroxybenzyl]",≤ 0.06,≤ 0.06,4
"CNC(CC(C)C)C(=O)NC1C(=O)NC(CC(N)=O)C(=O)NC2C(=O)NC3C(=O)NC(C(=O)NC(C(=O)O)c4cc(O)cc(O)c4-c4cc3ccc4O)C(OC3CC(C)(N)C(O)C(C)O3)c3ccc(c(Cl)c3)Oc3cc2cc(c3OC2OC(CO)C(O)C(O)C2OC2CC(C)(NCc3ccc(OC(F)F)cc3)C(O)C(C)O2)Oc2ccc(cc2Cl)C1O (stereo not drawn) [Compound 72, 4-difluormethoxybenzyl]",≤ 0.06,≤ 0.06,4
"CNC(CC(C)C)C(=O)NC1C(=O)NC(CC(N)=O)C(=O)NC2C(=O)NC3C(=O)NC(C(=O)NC(C(=O)O)c4cc(O)cc(O)c4-c4cc3ccc4O)C(OC3CC(C)(N)C(O)C(C)O3)c3ccc(c(Cl)c3)Oc3cc2cc(c3OC2OC(CO)C(O)C(O)C2OC2CC(C)(NCCCCCCCCOc3ccccc3)C(O)C(C)O2)Oc2ccc(cc2Cl)C1O (stereo not drawn) [Compound 195, 8-phenoxyoctyl]",≤ 0.06,0.25,4
CNC(CC(C)C)C(=O)NC1C(=O)NC(CC(N)=O)C(=O)NC2C(=O)NC3C(=O)NC(C(=O)NC(C(=O)O)c4cc(O)cc(O)c4-c4cc3ccc4O)C(OC3CC(C)(N)C(O)C(C)O3)c3ccc(c(Cl)c3)Oc3cc2cc(c3OC2OC(CO)C(O)C(O)C2OC2CC(C)(NCC3=CCC4CC3C4(C)C)C(O)C(C)O2)Oc2ccc(cc2Cl)C1O (stereo not drawn) [Compound 170],≤ 0.06,0.5,4
"CNC(CC(C)C)C(=O)NC1C(=O)NC(CC(N)=O)C(=O)NC2C(=O)NC3C(=O)NC(C(=O)NC(C(=O)O)c4cc(O)cc(O)c4-c4cc3ccc4O)C(OC3CC(C)(N)C(O)C(C)O3)c3ccc(c(Cl)c3)Oc3cc2cc(c3OC2OC(CO)C(O)C(O)C2OC2CC(C)(NCc3cc(C)cc(C)c3)C(O)C(C)O2)Oc2ccc(cc2Cl)C1O (stereo not drawn) [Compound 89, 3,5-dimethylbenzyl]",≤ 0.06,≤ 0.06,≤ 0.06
"C=CCCCCNC1(C)CC(OC2C(Oc3c4cc5cc3Oc3ccc(cc3Cl)C(OC3CC(C)(N)C(O)C(C)O3)C3NC(=O)C(NC(=O)C5NC(=O)C(CC(N)=O)NC(=O)C(NC(=O)C(CC(C)C)NC)C(O)c5ccc(c(Cl)c5)O4)c4ccc(O)c(c4)-c4c(O)cc(O)cc4C(C(=O)O)NC3=O)OC(CO)C(O)C2O)OC(C)C1O (stereo not drawn) [Compound 217, 5-hexenyl]",≤ 0.06,≤ 0.06,8
"CCCCCc1ccc(-c2ccc(CNC3(C)CC(OC4C(Oc5c6cc7cc5Oc5ccc(cc5Cl)C(OC5CC(C)(N)C(O)C(C)O5)C5NC(=O)C(NC(=O)C7NC(=O)C(CC(N)=O)NC(=O)C(NC(=O)C(CC(C)C)NC)C(O)c7ccc(c(Cl)c7)O6)c6ccc(O)c(c6)-c6c(O)cc(O)cc6C(C(=O)O)NC5=O)OC(CO)C(O)C4O)OC(C)C3O)cc2)cc1 (stereo not drawn) [Compound 22, 4-[4-pentylphenyl]benzyl]",2,4,1
"CNC(CC(C)C)C(=O)NC1C(=O)NC(CC(N)=O)C(=O)NC2C(=O)NC3C(=O)NC(C(=O)NC(C(=O)O)c4cc(O)cc(O)c4-c4cc3ccc4O)C(OC3CC(C)(N)C(O)C(C)O3)c3ccc(c(Cl)c3)Oc3cc2cc(c3OC2OC(CO)C(O)C(O)C2OC2CC(C)(NCCCc3ccc(OC)cc3)C(O)C(C)O2)Oc2ccc(cc2Cl)C1O (stereo not drawn) [Compound 175, 3-[4-methoxyphenyl]propyl]",≤ 0.06,≤ 0.06,4
"CNC(CC(C)C)C(=O)NC1C(=O)NC(CC(N)=O)C(=O)NC2C(=O)NC3C(=O)NC(C(=O)NC(C(=O)O)c4cc(O)cc(O)c4-c4cc3ccc4O)C(OC3CC(C)(N)C(O)C(C)O3)c3ccc(c(Cl)c3)Oc3cc2cc(c3OC2OC(CO)C(O)C(O)C2OC2CC(C)(NCc3ccc(-c4ccc(Cl)cc4)cc3)C(O)C(C)O2)Oc2ccc(cc2Cl)C1O (stereo not drawn) [Compound 229, 4-[4-chlorophenyl]benzyl-A82846B]",≤ 0.06,0.25,2
"CNC(CC(C)C)C(=O)NC1C(=O)NC(CC(N)=O)C(=O)NC2C(=O)NC3C(=O)NC(C(=O)NC(C(=O)O)c4cc(O)cc(O)c4-c4cc3ccc4O)C(OC3CC(C)(N)C(O)C(C)O3)c3ccc(c(Cl)c3)Oc3cc2cc(c3OC2OC(CO)C(O)C(O)C2OC2CC(C)(NCCCCCCCCCCc3ccccc3)C(O)C(C)O2)Oc2ccc(cc2Cl)C1O (stereo not drawn) [Compound 197, 10-phenyldecyl]",0.25,1,4
